Results on four compounds are retold here after patent publication US6777434B2, “Thiazolidine-4-one derivative, method for preparing the same, and pharmaceutical composition containing the same” (CJ Corp., priority 2002, dated 2004).

One experiment concerns the target T1, COX-1 (Homo sapiens, UniProt P23219).
T1 construct: host or cells: U-937 human lymphoma cells
Nature of the experiment: Assay for the COX-1 inhibitory activity using U-937 (PGE2 inhibition). It counts as cell-based. The following applies: 1 μM test compound; U-937 human lymphoma cells; PGE2 after arachidonic acid; read-out: Cyclooxygenase (COX) Inhibition (%) COX-1 (1 μM). As to the method:
The collected cells were diluted with HBSS (×1, Hank's balanced salt solution) to a concentration of 1×10^6 cells/ml. 1 ml of the dilute cell solution was placed into each well of 12-well plates. 5 μl of 1 μM solution of a test compound in DMSO and 5 μl of DMSO as a control were added to the wells. The wells were incubated in CO2 incubator at 37° C. for 15 minutes. Separately, 10 mM stock solution of arachidonic acid in ethanol was diluted ten times in ethanol to prepare 1 mM solution of arachidonic acid. Arachidonic acid acts as a substrate. 10 μl of the 1 mM solution of arachidonic acid was added to each well and incubated at CO2 incubator at 37° C. for 30 minutes. The cell solution of each well was placed in a centrifuge test tube and centrifuged at 10,000 rpm at 4° C. for 5 minutes. The concentration of PGE2 in the collected cells and the supernatant was quantified by means of a monoclonal kit (Cayman Chemicals). The percentages of PGE2 inhibition in a group of the test compound-treated cells in relation to a group of the DMSO-treated cells were calculated. Based on the calculated values, the COX-1 inhibitory activities were evaluated.
(§1) The percentages of the COX inhibition were calculated according to the following equation:
(§2) % Inhibition=(concentration of PGE2 in test compound-untreated sample−concentration of PGE2 in test compound-treated sample)/(concentration of PGE2 in test compound-untreated sample)×100

The target in a further experiment is T2, COX-2 (Mus musculus, UniProt Q05769).
T2 construct: host or cells: RAW 264.7 cells, pre-treated with aspirin, then induced with interferon and LPS
T2 sequence (Q05769 18-604): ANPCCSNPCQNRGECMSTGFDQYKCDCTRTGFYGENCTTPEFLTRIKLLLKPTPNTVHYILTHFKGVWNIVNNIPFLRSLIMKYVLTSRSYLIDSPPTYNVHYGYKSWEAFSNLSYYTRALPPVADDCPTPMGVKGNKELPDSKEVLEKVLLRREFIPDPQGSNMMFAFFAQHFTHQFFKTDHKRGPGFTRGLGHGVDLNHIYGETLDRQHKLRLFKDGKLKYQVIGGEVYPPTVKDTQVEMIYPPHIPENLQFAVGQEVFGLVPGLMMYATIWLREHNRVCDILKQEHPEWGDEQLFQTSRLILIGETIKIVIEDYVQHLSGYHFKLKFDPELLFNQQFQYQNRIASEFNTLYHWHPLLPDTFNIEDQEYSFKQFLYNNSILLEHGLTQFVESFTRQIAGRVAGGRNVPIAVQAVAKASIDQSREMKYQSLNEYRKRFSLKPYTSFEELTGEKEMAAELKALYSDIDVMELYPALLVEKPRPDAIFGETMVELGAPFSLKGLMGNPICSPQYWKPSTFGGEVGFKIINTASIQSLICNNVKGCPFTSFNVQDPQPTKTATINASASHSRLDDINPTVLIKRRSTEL
Nature of the experiment: Assay for the COX-2 inhibitory activity using RAW 264.7 cell line (PGE2 inhibition). It counts as cell-based. The following applies: for COX-2 inhibitory activity compared with the reference: 10 nM, RAW 264.7, comparison with Valdecoxib; for inhibition (%) ratio of COX-2 to COX-1 compared with the reference Valdecoxib: COX-2 at 10 nM (RAW 264.7) versus COX-1 at 1 μM (U-937); for inhibition at 0.01 µM: RAW264.7, 10 nM test compound, RAW 264.7 cells, interferon and LPS, 18 hours, PGE2 by EIA, read-out: Cyclooxygenase (COX) Inhibition (%) COX-2 (10 nM). The procedure: Each well was treated with 250 μM of aspirin and incubated at 37° C. for 2 hours. After the culture media were replaced with new culture media, the new culture media were treated with a test compound (10 nM) and incubated for 30 minutes. Then, each well was treated with interferon ? (100 units/ml) and lipopolysaccharide (LPS, 100 ng/ml) and incubated for 18 hours. The culture media were transferred to another test tubes. The concentration of PGE2 was quantified by means of the EIA kit (Cayman Chemicals):
as §1, §2

T1 sequence (P23219 24-599): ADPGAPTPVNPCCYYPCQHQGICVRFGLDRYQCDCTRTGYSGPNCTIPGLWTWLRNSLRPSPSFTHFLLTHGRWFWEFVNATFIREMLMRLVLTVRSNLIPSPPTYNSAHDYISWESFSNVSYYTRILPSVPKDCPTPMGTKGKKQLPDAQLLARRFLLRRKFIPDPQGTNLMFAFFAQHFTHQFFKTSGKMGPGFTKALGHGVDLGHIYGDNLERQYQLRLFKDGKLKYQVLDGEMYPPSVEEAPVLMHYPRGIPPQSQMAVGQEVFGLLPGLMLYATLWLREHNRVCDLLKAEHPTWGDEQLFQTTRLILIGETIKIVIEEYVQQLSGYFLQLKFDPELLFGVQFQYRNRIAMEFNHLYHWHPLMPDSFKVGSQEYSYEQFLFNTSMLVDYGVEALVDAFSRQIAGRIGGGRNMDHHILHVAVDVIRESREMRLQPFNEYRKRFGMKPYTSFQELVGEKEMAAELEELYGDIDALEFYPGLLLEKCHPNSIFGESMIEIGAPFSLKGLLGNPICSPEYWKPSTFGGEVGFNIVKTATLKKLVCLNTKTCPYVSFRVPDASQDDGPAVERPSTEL

For `Cc1ccc(N2C(=O)CSC2c2ccc(S(C)(=O)=O)cc2)cc1F` (stereo not drawn) [Example 2, 3-(3-fluoro-4-methylphenyl)-2-(4-methanesulfonylphenyl)thiazolidine-4-one], the inhibition (in general, the drop in the measured response relative to a control, in per cent) at 1 µM at COX-1 came out at 29.2%. On COX-2, the “COX-2 inhibitory activity compared with the reference” value was “significantly higher than the reference”, the “inhibition (%) ratio of COX-2 to COX-1 compared with the reference Valdecoxib” value (“inhibition (%) ratio” for short) is on record as “significantly higher than that in the reference” and the inhibition at 0.01 µM came out at 16%.
For `CS(=O)(=O)c1ccc(C2SCC(=O)N2c2ccccc2)cc1` (stereo not drawn) [Example 4, 2-(4-methanesulfonylphenyl)-3-phenylthiazolidine-4-one] the same measures were 26%, “significantly higher than the reference”, “significantly higher than that in the reference” and 16%.
Regarding `CS(=O)(=O)c1ccc(C2SCC(=O)N2c2ccc(C#N)cc2)cc1` (stereo not drawn) [Example 5, 3-(4-cyanophenyl)-2-(4-methanesulfonylphenyl)thiazolidine-4-one], the inhibition at 1 µM on COX-1 came to 10.1%. Also, on COX-2, the “inhibition (%) ratio” value is given as “significantly higher than that in the reference” and the inhibition at 0.01 µM worked out at 6.54%.
`CS(=O)(=O)c1ccc(C2SCC(=O)N2c2cc(F)cc(F)c2)cc1` (stereo not drawn) [Example 6, 3-(3,5-difluorophenyl)-2-(4-methanesulfonylphenyl)thiazolidine-4-one]: the inhibition at 1 µM on COX-1 was 38%. Further, at COX-2, the “COX-2 inhibitory activity compared with the reference” value was “significantly higher than the reference”, the “inhibition (%) ratio” value was “significantly higher than that in the reference” and the inhibition at 0.01 µM was 12.1%.
